# Measured values reported in US9944654B2, “Nargenicin compounds and uses thereof as antibacterial agents” (priority 2014, dated 2018).
# Read-outs that look alike come from different tables or passages of the source.
# How the values were obtained:
# [1] = tested on: Pseudomonas aeruginosa MB5890 (CB1101, efflux-deleted); experiment: microbe, parasite or virus in culture; assay type: cell-based; settings: Pseudomonas aeruginosa, read-out: P. aeruginosa MB5890 efflux-del (MIC), MHII broth; * = some reduction of growth versus control at […]
# [2] = tested on: Streptococcus pneumoniae MB6357 (CL 2883); experiment: Nargenicin antibacterial assay (MIC), S. pneumoniae; assay type: cell-based; settings: Streptococcus pneumoniae, read-out: S. pneumoniae MB2883 (MIC), Isosensitest broth; * = some reduction of growth versus control at […]
# [3] = biological target: T1, E. coli DnaE (DNA polymerase III α-subunit from Escherichia coli) (Escherichia coli, UniProt P10443); experiment: In vitro DnaE single enzyme assay (E. coli); assay type: biochemical
# T1 construct: EcDnaE (E. coli DnaE residues 1-1160); 6xHis (N); made in house; host or cells: E. coli BL21(DE3)
# T1 sequence (P10443 whole entry, the tested form may be a part): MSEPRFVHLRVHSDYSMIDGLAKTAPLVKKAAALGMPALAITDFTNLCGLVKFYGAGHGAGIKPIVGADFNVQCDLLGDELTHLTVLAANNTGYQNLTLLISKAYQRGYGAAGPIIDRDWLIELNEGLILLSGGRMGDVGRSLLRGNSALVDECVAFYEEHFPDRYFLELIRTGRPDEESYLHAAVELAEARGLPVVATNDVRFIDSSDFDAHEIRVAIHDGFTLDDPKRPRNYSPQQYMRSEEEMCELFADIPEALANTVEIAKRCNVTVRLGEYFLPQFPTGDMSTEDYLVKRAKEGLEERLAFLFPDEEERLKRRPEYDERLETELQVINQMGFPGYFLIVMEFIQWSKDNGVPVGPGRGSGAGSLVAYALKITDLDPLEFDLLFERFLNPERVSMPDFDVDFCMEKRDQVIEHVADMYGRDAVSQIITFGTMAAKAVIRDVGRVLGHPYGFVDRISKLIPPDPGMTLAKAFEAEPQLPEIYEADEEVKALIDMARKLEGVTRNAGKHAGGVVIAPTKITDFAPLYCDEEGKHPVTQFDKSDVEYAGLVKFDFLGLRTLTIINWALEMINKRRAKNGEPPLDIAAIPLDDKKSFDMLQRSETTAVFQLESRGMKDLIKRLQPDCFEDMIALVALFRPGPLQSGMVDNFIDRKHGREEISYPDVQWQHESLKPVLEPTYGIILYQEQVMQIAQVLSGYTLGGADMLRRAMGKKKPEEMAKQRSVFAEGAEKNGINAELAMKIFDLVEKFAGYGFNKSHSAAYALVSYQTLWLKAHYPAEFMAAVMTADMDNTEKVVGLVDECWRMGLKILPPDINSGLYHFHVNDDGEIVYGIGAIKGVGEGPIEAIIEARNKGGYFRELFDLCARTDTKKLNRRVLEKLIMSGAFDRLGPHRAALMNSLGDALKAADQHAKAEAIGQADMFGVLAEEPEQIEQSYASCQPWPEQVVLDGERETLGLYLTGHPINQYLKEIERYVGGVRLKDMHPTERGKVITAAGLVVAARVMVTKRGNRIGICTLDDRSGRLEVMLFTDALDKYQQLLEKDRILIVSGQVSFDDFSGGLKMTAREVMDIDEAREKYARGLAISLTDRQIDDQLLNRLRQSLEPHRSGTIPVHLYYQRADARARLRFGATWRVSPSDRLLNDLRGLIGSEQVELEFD
# Method: (§1) Plasmids encoding EcDnaE (E. coli DnaE residues 1-1160) and SaDnaE (S. aureus DnaE residues 1-1065) with 6×His N-terminal tags, were overexpressed in BL21(DE3) and BL21-AI cells (Invitrogen), respectively. Cells were grown in LB media to an OD ˜0.45 pelleted and then resuspended in Minimal Media, as described in Pryor et al. (1997, Protein Expr Purif. 10:309-19), and inducer (0.4 mM IPTG or 0.2% arabinose) for 21 hours at 18° C. at 220 rpm. Cells were then harvested, frozen for 20 minutes at −80° C. and thawed. Pellets were resuspended in 1× Talon buffer (50 mM Sodium Phosphate, 300 mM Sodium Chloride, pH 7.4) +10% glycerol +Roche PI's (-EDTA). Cells were lysed with two passes through a French press, then centrifuged for 45 minutes at 40,000 rpm (70Ti, Beckman). Supernatant was bound to 5 mL TALON resin (CLONTECH) for 1 hour at room temperature on Nutator. TALON resin was washed with 10 mM imidizole, and DnaE was eluted with 250 mM imidizole. Eluate was concentrated and run on a size exclusion column (SEC200, GE Healthcare) in the following buffer; 25 mM HEPES, 30 mM NaCl,1 mM CaCl2, 5% glycerol, pH 7.9. Pool SEC fractions based on SDS-PAGE run, aliquot, freeze, and store at -80° C.
# (§2) DnaE was diluted in 50 mM potassium phosphate pH 7.5, 5 mM BME, 10% glycerol and 200 mM NaCl prior to use.
# (§3) The purpose of the DnaE single enzyme assay is to determine the ability of compounds to inhibit the DNA polymerase III α-subunit homolog from Staphylococcus aureus or the α-subunit from Escherichia coli without the other components of the replication machinery. The DnaE single enzyme assay was a modified version of the method, Standard Pol III Assay Using Activated DNA and Four dNTPs, described by Butler et al., 2008, Methods in Molecular Medicine: New Antibiotic Targets 142:25-36. Briefly, in 96-well plates, enzyme was added to a mixture containing 30 mM Tris-HCl pH 7.5, 20% glycerol, 4 mM DTT, 10 mM Mg acetate, 0.025 mM dATP, 0.025 mM dGTP, 0.025 mM dc:TP, 0.011 mM ^3H-dTTP 1 mCi/ml (Perkin-Elmer), and 0.298 mg/mL Dnase I (Sigma) treated “activated” Calf Thymus DNA (Worthington Biochemical). The assay was set up so that 5 μl of compound was distributed to the plates, 90 μl of reaction mix was added to the compound, and 5 μl of enzyme was added to start the reaction. Assays were initiated by the addition of 0.8 μg/ml E. coli or 0.05 μg/ml S. aureus DnaE, incubated for 30 min at 30° C., and terminated by the addition of a 20% trichloroacetic acid and 0.2% sodium pyrophosphate solution. Precipitated labeled DNA was collected on Glass-fiber Filtermat A using Micro96 Harvester, and the filters were washed, dried, and counted in a Microbeta Trilux (Perkin Elmer). Serial dilutions of compounds (in DMSO) were added to the plates before enzyme addition.
# [4] = tested on: Staphylococcus aureus MB6266 (MRSA COL); experiment: Nargenicin antibacterial assay (MIC), S. aureus; assay type: cell-based; settings: Staphylococcus aureus, MRSA, read-out: S. aureus COL (MIC), MHII broth + 50% human serum; * = some reduction of growth versus control at […]
# [5] = biological target: T2, S. aureus DnaE (DNA polymerase III α-subunit homolog from Staphylococcus aureus) (Staphylococcus aureus, UniProt Q5HF71); experiment: biochemical; assay type: biochemical
# T2 construct: SaDnaE (S. aureus DnaE residues 1-1065); 6xHis (N); made in house; host or cells: E. coli BL21-AI
# T2 sequence (Q5HF71 1-1065): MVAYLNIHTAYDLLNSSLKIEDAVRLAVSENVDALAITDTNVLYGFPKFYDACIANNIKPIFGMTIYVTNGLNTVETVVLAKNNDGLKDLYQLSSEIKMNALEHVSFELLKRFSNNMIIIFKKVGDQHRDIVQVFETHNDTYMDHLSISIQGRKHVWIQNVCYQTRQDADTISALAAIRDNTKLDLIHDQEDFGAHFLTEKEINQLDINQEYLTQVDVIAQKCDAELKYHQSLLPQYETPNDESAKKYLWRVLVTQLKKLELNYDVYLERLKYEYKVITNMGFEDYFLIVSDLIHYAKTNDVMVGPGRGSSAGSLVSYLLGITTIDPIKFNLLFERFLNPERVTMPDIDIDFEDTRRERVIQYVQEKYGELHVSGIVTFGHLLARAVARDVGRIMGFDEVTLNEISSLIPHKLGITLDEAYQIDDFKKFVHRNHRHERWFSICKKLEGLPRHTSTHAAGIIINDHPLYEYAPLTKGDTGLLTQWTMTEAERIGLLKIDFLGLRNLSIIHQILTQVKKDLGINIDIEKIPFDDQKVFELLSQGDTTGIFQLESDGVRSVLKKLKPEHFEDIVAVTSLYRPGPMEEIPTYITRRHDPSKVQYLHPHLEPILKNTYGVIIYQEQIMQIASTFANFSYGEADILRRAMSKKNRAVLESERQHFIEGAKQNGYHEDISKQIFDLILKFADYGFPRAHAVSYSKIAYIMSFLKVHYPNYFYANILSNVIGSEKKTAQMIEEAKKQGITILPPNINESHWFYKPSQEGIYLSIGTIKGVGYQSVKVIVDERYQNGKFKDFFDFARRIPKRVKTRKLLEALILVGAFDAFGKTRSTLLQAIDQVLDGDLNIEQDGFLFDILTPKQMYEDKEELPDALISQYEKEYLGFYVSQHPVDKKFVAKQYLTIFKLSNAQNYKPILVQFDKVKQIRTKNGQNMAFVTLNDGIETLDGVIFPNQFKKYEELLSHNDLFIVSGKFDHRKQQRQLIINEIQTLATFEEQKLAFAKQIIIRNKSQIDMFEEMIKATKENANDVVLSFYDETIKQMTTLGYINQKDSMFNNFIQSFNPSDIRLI
# Method: as §1, §2, §3
# [6] = tested on: Escherichia coli MB5747 (LS 883, tolC); experiment: microbe, parasite or virus in culture; assay type: cell-based; settings: Escherichia coli, read-out: E. coli LS883 tolC (MIC), MHII broth; * = some reduction of growth versus control at […]
# [7] = read-out: E. coli DnaE IC50 (converted)
# [8] = read-out: S. aureus DnaE IC50 (converted)
Structure (SMILES),MIC [1] [µg/mL],MIC [2] [µg/mL],"IC50 [3, 7] [µM]",MIC [4] [µg/mL],IC50 ([5]; S. aureus DnaE IC50) [µM],MIC [6] [µg/mL],IC50 ([3]; E. coli DnaE IC50) [µM],"IC50 [5, 8] [µM]"
CO[C@H]1C[C@H]2C=C[C@H]3[C@H]4O[C@]2(/C(C)=C/[C@@H](C)[C@@H]([C@@H](C)OC(=O)C[N+]25CC[N+](CC(N)=O)(CC2)CC5)OC1=O)[C@@H]3[C@H](O)[C@@H](C)[C@H]4OC(=O)c1ccc[nH]1.O=S(=O)([O-])C(F)(F)F.[Br-] [Example 74],32,> 128,20.9,0.5,< 0.00628,0.5,,
CO[C@H]1C[C@H]2C=C[C@H]3[C@H]4O[C@]2(/C(C)=C/[C@@H](C)[C@@H]([C@@H](C)O)OC1=O)[C@@H]3[C@H](O)[C@@H](C)[C@H]4OC(=O)c1cccn1C(C)=O [Example 203],16,128,11.7,< 0.125,< 0.0108,< 0.125,,
CO[C@H]1C[C@H]2C=C[C@H]3[C@H]4O[C@]2(/C(C)=C/[C@@H](C)[C@@H]([C@@H](C)OC(=O)NCc2ccc(O)c(O)c2)OC1=O)[C@@H]3[C@H](O)[C@@H](C)[C@H]4OC(=O)c1ccc[nH]1 [Example 17],> 128,> 128,22,8,< 0.00881,8,,
CO[C@H]1CC2C=C[C@H]3[C@H]4O[C@]2(/C(C)=C/[C@@H](C)[C@@H](C(C)OC(C)=O)OC1=O)[C@@H]3[C@H](O)[C@@H](C)[C@H]4OC(=O)c1ccc[nH]1 (stereo partly drawn) [Example 57],> 128,64,80.7,8,< 0.0108,4,,
"CO[C@H]1C[C@H]2C=CC3C4[C@H](O)[C@@H](C)[C@@H](OC(=O)c5cc(NC(C)=O)c[nH]5)[C@@H]3O[C@]42/C(C)=C/[C@@H](C)[C@@H]([C@@H](C)O)OC1=O [Example 168, (3R,4S,7S,8aS,11R,12R,13R,14R,14bS,E)-14-hydroxy-4-((R)-1-hydroxyethyl)-7-methoxy-1,3,13-trimethyl-6-oxo-3,4,6,7,8,8a,10a,11,12,13,14,14a-dodecahydro-11,14b-epoxynaphtho[2,1-e]oxecin-12-yl 4-acetamido-1H-pyrrole-2-carboxylate]",> 64,> 64,> 87.3,> 128,31.4,> 128,,
"CO[C@H]1C[C@H]2C=CC3C4[C@H](O)[C@@H](C)[C@@H](OC(=O)c5cc(NC(=O)c6ccccc6)c[nH]5)[C@@H]3O[C@]42/C(C)=C/[C@@H](C)[C@@H]([C@@H](C)O)OC1=O [Example 167, (3R,4S,7S,8aS,11R,12R,13R,14R,14bS,E)-14-hydroxy-4-((R)-1-hydroxyethyl)-7-methoxy-1,3,13-trimethyl-6-oxo-3,4,6,7,8,8a,10a,11,12,13,14,14a-dodecahydro-11,14b-epoxynaphtho[2,1-e]oxecin-12-yl 4-benzamido-1H-pyrrole-2-carboxylate]",> 128,> 128,> 158,> 128,3.15,> 128,,
CO[C@H]1C[C@H]2C=C[C@H]3[C@H]4O[C@]2(/C(C)=C/[C@@H](C)[C@@H]([C@@H](C)OC(=O)CCl)OC1=O)[C@@H]3[C@H](O)[C@@H](C)[C@H]4OC(=O)c1ccc[nH]1 [Example 59],16,64,16.9,0.25,< 0.0101,0.25,,
CO[C@H]1C[C@H]2C=C[C@H]3[C@H]4O[C@]2(/C(C)=C/[C@@H](C)[C@@H]([C@@H](C)OC(=O)c2ccccc2)OC1=O)[C@@H]3[C@H](O)[C@@H](C)[C@H]4OC(=O)c1ccc[nH]1 [Example 67],> 128,> 128,,> 128,,> 128,12.9,0.0113
"CO[C@H]1C[C@H]2C=C[C@H]3[C@H]4O[C@]2(/C(C)=C/[C@@H](C)[C@@H]([C@@H](C)OC(=O)NC(=O)C(Cl)(Cl)Cl)OC1=O)[C@@H]3[C@H](OC(=O)NC(=O)C(Cl)(Cl)Cl)[C@@H](C)[C@H]4OC(=O)c1ccc[nH]1 [Example 1, (3R,4S,7S,8aS,10aR,11R,12R,13R,14R,14aS,14bS,E)-7-methoxy-1,3,13-trimethyl-6-oxo-14-(((2,2,2-trichloroacetyl)carbamoyl)oxy)-4-((R)-1-(((2,2,2-trichloroacetyl)carbamoyl)oxy)ethyl)-3,4,6,7,8,8a,10a,11,12,13,14,14 a-dodecahydro-11,14b-epoxynaphtho[2,1-e]oxecin-12-yl 1H-pyrrole-2-carboxylate]",> 128,> 128,,> 8,34.7,> 8,67.2,
CO[C@H]1C[C@H]2C=CC3C4[C@H](O)[C@@H](C)[C@@H](OC(=O)c5ccc[nH]5)[C@@H]3O[C@]42/C(C)=C/[C@@H](C)C([C@@H](C)O)NC1=O (stereo partly drawn) [Example 170],> 128,> 128,> 194,> 128,2.53,128,,
COC1CC2C=CC3C4OC2(C(C)=CC(C)C(C(C)OC(=O)NCCCN2CCN(C)CC2)OC1=O)C3C(O)C(C)C4OC(=O)c1ccc[nH]1 (stereo not drawn) [Example 25],> 128,> 128,,32,,32,> 143,0.03
